Laboratory results taken from patent US10245264B2, “Substituted imidazo[1,2-a]pyrazines as soluble guanylate cyclase activators” (Merck Sharp & Dohme Corp., priority 2015, dated 2019).

Target: T1, sGC α1/β1 heterodimer stably expressed in CHO-K1 cells (CHO-K1/sGC) (Homo sapiens, UniProt Q02108+Q02153)
T1 construct: expressed in transfected cells
T1 sequence (Q02108 1-690): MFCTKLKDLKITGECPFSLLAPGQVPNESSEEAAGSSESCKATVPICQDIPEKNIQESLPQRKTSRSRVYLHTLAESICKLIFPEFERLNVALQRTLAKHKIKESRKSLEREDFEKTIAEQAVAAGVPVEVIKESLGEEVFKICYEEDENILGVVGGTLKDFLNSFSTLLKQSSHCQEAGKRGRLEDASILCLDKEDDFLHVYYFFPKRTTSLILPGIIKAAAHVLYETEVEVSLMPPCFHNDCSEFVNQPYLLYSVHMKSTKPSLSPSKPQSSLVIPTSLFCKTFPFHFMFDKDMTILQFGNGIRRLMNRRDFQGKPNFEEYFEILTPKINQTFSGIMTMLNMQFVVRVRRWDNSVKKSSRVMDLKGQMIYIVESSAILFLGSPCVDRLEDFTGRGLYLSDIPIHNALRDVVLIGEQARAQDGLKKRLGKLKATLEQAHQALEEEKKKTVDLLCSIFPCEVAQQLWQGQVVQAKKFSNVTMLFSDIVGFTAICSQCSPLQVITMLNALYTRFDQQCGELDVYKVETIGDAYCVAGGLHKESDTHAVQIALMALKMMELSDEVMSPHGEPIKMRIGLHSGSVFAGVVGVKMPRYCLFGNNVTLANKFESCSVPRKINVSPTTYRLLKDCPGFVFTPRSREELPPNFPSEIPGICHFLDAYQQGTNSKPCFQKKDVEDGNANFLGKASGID
T1 sequence (Q02153 1-619): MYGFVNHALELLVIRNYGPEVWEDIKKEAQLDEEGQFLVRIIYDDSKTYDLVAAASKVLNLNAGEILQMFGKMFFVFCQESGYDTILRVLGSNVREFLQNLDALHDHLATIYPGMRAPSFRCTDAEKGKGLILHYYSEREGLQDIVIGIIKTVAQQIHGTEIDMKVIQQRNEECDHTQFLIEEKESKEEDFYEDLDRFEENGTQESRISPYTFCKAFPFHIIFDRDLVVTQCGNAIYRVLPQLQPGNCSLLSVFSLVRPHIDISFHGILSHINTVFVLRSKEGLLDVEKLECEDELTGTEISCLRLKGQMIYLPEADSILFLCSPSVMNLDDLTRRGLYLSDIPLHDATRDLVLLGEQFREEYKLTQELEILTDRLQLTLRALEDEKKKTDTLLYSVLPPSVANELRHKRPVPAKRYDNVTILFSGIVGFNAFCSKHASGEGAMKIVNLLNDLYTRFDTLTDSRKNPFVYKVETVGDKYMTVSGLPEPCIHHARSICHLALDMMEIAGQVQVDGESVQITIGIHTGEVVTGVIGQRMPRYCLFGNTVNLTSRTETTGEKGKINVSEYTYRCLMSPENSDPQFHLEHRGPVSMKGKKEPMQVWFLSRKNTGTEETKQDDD
Assay: Cell-based sGC functional assay (CASA assay), cGMP generation by HTRF
Conditions: for Emax: CHO-K1, maximum cGMP production of Compound A set to 100% activation, read-out: % Act. (percent activation relative to Compound A); for EC50: CHO-K1/sGC cells, 1 hr at 37° C., 4P fit, presence or absence of DETA-NO not given, read-out: IP (nM) (inflection point)
Excerpt: Biological Assay 1: Cell-Based sGC Functional Assay (CASA Assay) Rationale
sGC is a heme-containing enzyme that converts GTP to secondary messenger cGMP. Increases in cGMP levels affect several physiological processes including vasorelaxation through multiple downstream pathways. […] Heme-dependent activators (HDAs) preferentially activate sGC containing a ferrous heme group. To determine the effect of sGC activators on enzyme activity, the CASA assay was developed to monitor the generation of cGMP in a cell line that stably expresses the heterodimeric sGC protein.
A CHO-K1 cell line stably expressing the sGC α1/β1 heterodimer was generated using a standard transfection protocol. CHO-K1 cells were transfected with plasmids pIREShyghsGCα1 and pIRESneo-hsGCβ1 simultaneously using FUGENE reagent. Clones that stably express both subunits were selected with hygromycin and neomycin for ˜2 weeks. Clone #7 was chosen for the assay and was designated CHO-K1/sGC. CHO-K1/sGC cells were maintained in F-K12 medium containing 10% heat-inactivated Fetal Bovine Serum (FBS), 100 μg/mL penicillin/streptomycin, 0.5 mg/mL hygromycin and 0.25 mg/mL G418. The cells were then cryopreserved in LN2. On the day of the assay, cells were thawed and resuspended in EBSS Assay Buffer (Sigma, E3024) supplemented with 5 mM MgCl2, 10 mM HEPES (4-(2-hydroxyethyl)piperazine-1-ethanesulfonic acid) and 0.05% BSA (bovine serum albumin) (EAB) and cell density was then adjusted to 4×10^5/mL with EAB. IBMX (3-isobutyl-1-methylxanthin, 0.5 mM) was added to inhibit degradation of cGMP. Compounds were diluted from DMSO stock solutions and added to the assay at a final DMSO concentration of 2.5%. Cells were incubated with compounds in the presence and absence of 1 μM of Diethylenetriamine/nitric oxide adduct (DETA-NO; Sigma, 17018) for 1 hr at 37° C. At the end of the incubation period, the reaction was terminated and the cells were lysed with the detection reagents from Cisbio Kits. The level of intracellular cGMP was determined using an HTRF-based assay kit (CisBio, 62GM2PEC), which detects the displacement of a fluorescence labeled cGMP from its specific antibody. The cGMP produced by test compounds was directly compared to the maximum cGMP production (this value was set to equal 100% activation.) of the published sGC-HDA Compound A:
[drawing 101] (Example 1 in WO 2010/065275, published Jun. 10, 2010). The test compounds' activities were then expressed as a percentage of Compound A, the standard in every experiment. This percent activation was calculated either in the presence or absence of DETA-NO which was then plotted. IP and maximum fold induction was derived using ADA analysis software for 4P fit.
The compounds in the Examples of the instant invention had inflection points (IP) less than or equal to 10 μM and many had IPs less than or equal to about 1 μM.

Row | SMILES | Emax [%] | EC50 [nM]
1 | CC1(C)C(=O)Nc2nc(-c3cn4ccnc4c(Oc4cc(F)cc(F)c4)n3)nc(N)c21 [Example 24, 4-amino-2-[8-(3,5-difluorophenoxy)imidazo[1,2-a]pyrazin-6-yl]-5,5-dimethyl-5,7-dihydro-6H-pyrrolo[2,3-d] pyrimidin-6-one] | 89 | 238
2 | CC1(c2ccc(F)cc2)C(=O)Nc2nc(-c3cn4ccnc4c(Oc4cc(F)ccc4F)n3)nc(N)c21 (centres unmarked) [Example 25A, 4-amino-2-[8-(2,5-difluorophenoxy)imidazo[1,2-a]pyrazin-6-yl]-5-(4-fluorophenyl)-5-methyl-5,7-dihydro-6H-pyrrolo[2,3-d] pyrimidin-6-one] | 97 | 32
3 | CC1(C)C(=O)Nc2nc(-c3cn4ccnc4c(Oc4cc(F)ccc4F)n3)nc(N)c21 [Example 26, 4-amino-2-[8-(2,5-difluorophenoxy)imidazo[1,2-a]pyrazin-6-yl]-5,5-dimethyl-5,7-dihydro-6H-pyrrolo[2,3-d] pyrimidin-6-one] | 105 | 718
4 | CC1(c2ccc(Cl)cc2)C(=O)Nc2nc(-c3cn4ccnc4c(Oc4cc(F)ccc4F)n3)nc(N)c21 (centres unmarked) [Example 27A, 4-amino-5-(4-chlorophenyl)-2-[8-(2,5-difluoro-phenoxy)imidazo [1,2-a]pyrazin-6-yl]-5-methyl-5,7-dihydro-6H-pyrrolo[2,3-d] pyrimidin-6-one] | 128 | 47
5 | CC1(c2ccc(Cl)cc2)C(=O)Nc2nc(-c3cn4ccnc4c(OC4CCC(F)(F)CC4)n3)nc(N)c21 (centres unmarked) [Example 28A, 4-amino-5-(4-chlorophenyl)-2-{8-[(4,4-difluorocyclohexyl)oxy]imidazo[1,2-a]pyrazin-6-yl}-5-methyl-5,7-dihydro-6H-pyrrolo[2,3-d] pyrimidin-6-one] | 139 | 1160
6 | CC1(c2ccc(F)cc2)C(=O)Nc2nc(-c3cn4ccnc4c(Oc4cccnc4)n3)nc(N)c21 (centres unmarked) [Example 29A, 4-amino-5-(4-fluorophenyl)-5-methyl-2-[8-(pyridin-3-yloxy)imidazo[1,2-a]pyrazin-6-yl]-5,7-dihydro-6H-pyrrolo[2,3-d] pyrimidin-6-one] | 158 | 422
7 | CC1(c2ccc(F)cc2)C(=O)Nc2nc(-c3cn4ccnc4c(OCC4CC(F)(F)C4)n3)nc(N)c21 (centres unmarked) [Example 31A, 4-amino-2-{8-[(3,3-difluoro-cyclobutyl)methoxy]imidazo [1,2-a]pyrazin-6-yl}-5-(4-fluoro-phenyl)-5-methyl-5,7-dihydro-6H-pyrrolo[2,3-d] pyrimidin-6-one] | 98 | 145
8 | CC1(c2ccc(F)cn2)C(=O)Nc2nc(-c3cn4ccnc4c(OCC4CC(F)(F)C4)n3)nc(N)c21 (centres unmarked) [Example 33B, 4-amino-2-{8-[(3,3-difluoro-cyclobutyl)methoxy]imidazo [1,2-a]pyrazin-6-yl}-5-(5-fluoro-pyridin-2-yl)-5-methyl-5,7-dihydro-6H-pyrrolo[2,3-d] pyrimidin-6-one] | 112 | 1040
9 | CC1(c2ccc(F)cc2)C(=O)Nc2nc(-c3cn4cc(C(F)(F)F)nc4c(Oc4cccc(F)c4)n3)nc(N)c21 (centres unmarked) [Example 35A, 4-Amino-2-(8-(3-fluorophenoxy)-2-(trifluoromethyl)imidazo[1,2-a]pyrazin-6-yl)-5-(4-fluorophenyl)-5-methyl-5H-pyrrolo[2,3-d]pyrimidin-6(7H)-one] | 94 | 468
10 | CC1(c2ccc(F)cc2)C(=O)Nc2nc(-c3cn4cc(C(F)(F)F)nc4c(Oc4ccccc4)n3)nc(N)c21 (centres unmarked) [Example 36A, 4-amino-5-(4-fluorophenyl)-5-methyl-2-(8-phenoxy-2-(trifluoromethyl)imidazo[1,2-a]pyrazin-6-yl)-5H-pyrrolo[2,3-d] pyrimidin-6(7H)-one] | 129 | 1470
11 | CC1(c2ccc(F)cc2)C(=O)Nc2nc(-c3cn4cc(C(F)(F)F)nc4c(Oc4cccc(F)c4F)n3)nc(N)c21 (centres unmarked) [Example 37A, 4-amino-2-(8-(2,3-difluoro-phenoxy)-2-(trifluoromethyl)imidazo[1,2-a]pyrazin-6-yl)-5-(4-fluorophenyl)-5-methyl-5H-pyrrolo[2,3-d] pyrimidin-6(7H)-one] | 83 | 719
12 | CC1(c2ccc(F)cc2)C(=O)Nc2nc(-c3cn4cc(C5CC5)nc4c(Oc4cccc(F)c4)n3)nc(N)c21 (centres unmarked) [Example 38A, 4-amino-2-[2-cyclopropyl-8-(3-fluorophenoxy)imidazo[1,2-a]pyrazin-6-yl]-5-(4-fluorophenyl)-5-methyl-5,7-dihydro-6H-pyrrolo[2,3-d] pyrimidin-6-one] | 92 | 748
13 | CC1(c2ccc(F)cc2)C(=O)Nc2nc(-c3cn4ccnc4c(OCCC4CC4(F)F)n3)nc(N)c21 (centres unmarked) [Example 41A, 4-amino-2-{8-[2-(2,2-difluoro-cyclopropyl)ethoxy]imidazo[1,2-a]pyrazin-6-yl}-5-(4-fluorophenyl)-5-methyl-5,7-dihydro-6H-pyrrolo[2,3-d] pyrimidin-6-one] | 94 | 644
14 | CC1(c2ccc(F)cc2)C(=O)Nc2nc(-c3cn4ccnc4c(OCCC4CC(F)(F)C4)n3)nc(N)c21 (centres unmarked) [Example 42A, 4-amino-2-{8-[2-(3,3-difluoro-cyclobutyl)ethoxy]imidazo[1,2-a]pyrazin-6-yl}-5-(4-fluorophenyl)-5-methyl-5,7-dihydro-6H-pyrrolo[2,3-d] pyrimidin-6-one] | 119 | 1350
15 | CC1(c2ccc(F)cc2)C(=O)Nc2nc(-c3cn4ccnc4c(OCC4CCCCC4)n3)nc(N)c21 (centres unmarked) [Example 43A, 4-amino-2-[8-(cyclohexyl-methoxy)imidazo [1,2-a]pyrazin-6-yl]-5-(4-fluorophenyl)-5-methyl-5,7-dihydro-6H-pyrrolo[2,3-d] pyrimidin-6-one] | 116 | 17
16 | CC1(c2ccc(F)cc2)C(=O)Nc2nc(-c3cn4ccnc4c(OCCC4CC4)n3)nc(N)c21 (centres unmarked) [Example 44A, 4-amino-2-[8-(2-cyclopropyl-ethoxy)imidazo [1,2-a]pyrazin-6-yl]-5-(4-fluorophenyl)-5-methyl-5,7-dihydro-6H-pyrrolo[2,3-d] pyrimidin-6-one] | 100 | 60
